Results published in patent EP1077966B1, “BIPHENYL SULFONYL ARYL CARBOXYLIC ACIDS USEFUL IN THE TREATMENT OF INSULIN RESISTANCE AND HYPERGLYCEMIA” (Wyeth, priority 1998, dated 1999).
Marks after values point to notes of the source that are not given here.

Tests used:
Human recombinant PTP1B = biological target: T1, Human recombinant PTP1B (Homo sapiens, UniProt P18031); experiment: Inhibition of tri-phosphorylated insulin receptor dodecaphosphopeptide dephosphorylation by hPTP1B (malachite green-ammonium molybdate phosphate detection); type: biochemical; conditions: substrate phosphotyrosyl dodecapeptide […] (insulin receptor 1142-1153), 37°C, 30 min, pH 7.4
T1 construct: made in house
T1 sequence (P18031 1-435): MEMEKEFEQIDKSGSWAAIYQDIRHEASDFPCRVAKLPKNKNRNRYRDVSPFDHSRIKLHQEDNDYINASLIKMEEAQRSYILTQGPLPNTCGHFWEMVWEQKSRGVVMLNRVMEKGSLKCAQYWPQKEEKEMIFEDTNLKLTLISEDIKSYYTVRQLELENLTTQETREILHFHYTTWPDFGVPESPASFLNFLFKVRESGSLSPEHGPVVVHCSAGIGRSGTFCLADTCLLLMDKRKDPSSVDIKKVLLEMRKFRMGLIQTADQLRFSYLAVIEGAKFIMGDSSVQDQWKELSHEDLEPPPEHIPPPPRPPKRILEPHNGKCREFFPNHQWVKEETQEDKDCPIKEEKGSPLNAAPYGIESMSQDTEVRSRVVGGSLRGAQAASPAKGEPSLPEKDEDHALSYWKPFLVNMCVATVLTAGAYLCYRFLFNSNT

diabetic (ob/ob) mice = experiment: Blood glucose lowering activity in diabetic (ob/ob) mice; type: in vivo; conditions: Dose 25 mg/Kg, plasma glucose relative to vehicle treated mice, statistically (p < 0.05) significant
From the text: The procedures used and results obtained are briefly described below.
The non-insulin dependent diabetic (NIDDM) syndrome can be typically characterizes by obesity, hyperglycemia, abnormal insulin secretion, hyperinsulinemia and insulin resistance.
In each test procedure, mice [Male or female ob/ob (C57 B1/6J) and their lean litermates (ob/+ or +/+, Jackson Laboratories) ages 2 to 5 months (10 to 65 g)] of a similar age were randomized according to body weight into 4 groups of 10 mice. The mice were housed 5 per cage and are maintained on normal rodent chow with water ad libitum. Mice received test compound daily by gavage (suspended in 0.5 ml of 0.5% methyl cellulose); dissolved in the drinking water; or admixed in the diet. The dose of compounds given ranges from 2.5 to 200 mg/kg body weight/day. The dose is calculated based on the fed weekly body weight and is expressed as active moiety. […] Control mice received vehicle only.
On the morning of Day 4, 7 or 14 two drops of blood (approximetly 50 ul) were collected into sodium fluoride containing tubes either from the tail vein or after decapitation. […] The plasma was isolated by centrifugation and the concentration of glucose is measured enzymatically on an Abbott V.P. Analyzer.
For each mouse, the percentage change in plasma glucose on Day 4, 7 or 14 is calculated relative to the mean plasma glucose of the vehicle treated mice. […]

IC50 (Human recombinant PTP1B) [µM]	SMILES	% Change Glucose from Vehicle (diabetic (ob/ob) mice)
0.026	O=C(O)c1cc(S(=O)(=O)Oc2ccc(-c3ccc(-c4c(Cc5ccccc5)oc5ccccc45)cc3)cc2)ccc1O [Example 2, 5-[4'-(2-Benzyl-benzofuran-3-yl)-biphenyl-4-yloxysulfonyl]-2-hydroxy-benzoic acid]	–
0.178	O=C(O)c1ccc(S(=O)(=O)Oc2ccc(-c3ccc(-c4c(C(=O)c5ccccc5)oc5ccccc45)cc3)cc2[N+](=O)[O-])cc1O [Example 8, 4-[4'-(2-Benzoyl-benzofuran-3-yl)-3-nitro-biphenyl-4-yloxysulfonyl]-2-hydroxy-benzoic acid]	–
0.024	O=C(O)c1ccc(S(=O)(=O)Oc2ccc(-c3ccc(-c4c(Cc5ccccc5)sc5ccccc45)cc3)cc2Br)cc1O [Example 12, 4-[4'-(2-Benzyl-benzo[b]thiophen-3-yl)-3-bromo-biphenyl-4-yloxysulfonyl]-2-hydroxy-benzoic acid]	–
0.034	Cc1cc(-c2ccc(-c3c(Cc4ccccc4)oc4ccccc34)cc2)cc(C)c1OS(=O)(=O)c1ccc(C(=O)O)c(O)c1 [Example 6, 4-[4'-(2-Benzyl-benzofuran-3-yl)-3,5-dimethyl-biphenyl-4-yloxysulfonyl]-2-hydroxy-benzoic acid]	–
0.075	O=C(O)c1ccc(S(=O)(=O)Oc2ccc(-c3ccc(-c4c(Cc5ccccc5)oc5ccccc45)cc3)cc2)cc1 [Example 3, 4-[4'-(2-Benzyl-benzofuran-3-yl)-biphenyl-4-yloxysulfonyl]-benzoic acid]	–
0.354	O=C(O)c1ccc(S(=O)(=O)Oc2ccc(-c3ccc(-c4coc5ccccc45)cc3)cc2)cc1O [Example 5]	–
0.039	O=C(O)c1ccc(S(=O)(=O)Oc2ccc(-c3ccc(-c4c(Cc5ccccc5)oc5ccccc45)cc3)cc2)cc1O [Example 1, 4-[4'-(2-Benzyl-benzofuran-3-yl)-biphenyl-4-yloxysulfonyl]-2-hydroxy-benzoic acid]	–
0.028	O=C(O)c1ccc(S(=O)(=O)Oc2ccc(-c3ccc(-c4c(Cc5ccccc5)sc5ccccc45)cc3)cc2)cc1O [Example 11, 4-[4'-(2-Benzyl-benzo[b]thiophen-3-yl)-biphenyl-4-yloxysulfonyl]-2-hydroxy-benzoic acid]	–
0.106	O=C(O)c1cccc(S(=O)(=O)Oc2ccc(-c3ccc(-c4c(Cc5ccccc5)oc5ccccc45)cc3)cc2)c1 [Example 4, 3-[4'-(2-Benzyl-benzofuran-3-yl)-biphenyl-4-yloxysulfonyl]-benzoic acid]	–
0.029	O=C(O)c1ccc(S(=O)(=O)Oc2ccc(-c3ccc(-c4c(Cc5ccccc5)oc5ccccc45)cc3)cc2[N+](=O)[O-])cc1O [Example 7, 4-[4'-(2-Benzyl-benzofuran-3-yl)-3-nitro-biphenyl-4-yloxysulfonyl]-2-hydroxy-benzoic acid]	–
0.032	Cc1sc(Cc2ccccc2)c(-c2ccc(-c3ccc(OS(=O)(=O)c4ccc(C(=O)O)c(O)c4)cc3)cc2)c1C [Example 10, 4-[4'-(2-Benzyl-4,5-dimethyl-thiophen-3-yl)-biphenyl-4-yloxysulfonyl]-2-hydroxy-benzoic acid]	–
0.04	O=C(O)c1ccc(S(=O)(=O)Oc2ccc(-c3ccc(-c4c(C(=O)c5ccccc5)oc5ccccc45)cc3)cc2C2CCCC2)cc1O [Example 9, 4-[4'-(2-Benzoyl-benzofuran-3-yl)-3-cyclopentyl-biphenyl-4-yloxysulfonyl]-2-hydroxy-benzoic acid]	–
0.03	O=C(O)c1ccc(S(=O)(=O)Oc2c(Br)cc(-c3ccc(-c4c(Cc5ccccc5)sc5ccccc45)cc3)cc2Br)cc1O [Example 13, 4-[4'-(2-Benzyl-benzo[b]thiophen-3-yl)-3,5-dibromo-biphenyl-4-yloxysulfonyl]-2-hydroxy-benzoic acid]	-24.6^a %
